Data as given in US4816472A, “Derivatives of 19,20-Bis-nor-prostanoic acid with antiulcer and anorectic activity, process for their preparation and pharmaceutical compositions thereof” (Istituto Biochemico Italiano Giovanni Lorenzini S.p.A., priority 1985, dated 1989).
Counter-ions that a name gives are not always drawn.

Assays:
[1] = system: NaOH induced ulcers in the rat; assay: Sodium hydroxide induced ulcers in the rat; assay type: in vivo
Method: (§1) The anitulcer activity of these derivatives was evaluated on ulcers induced by the administration of ethanol, hydrochloric acid and sodium hydroxide in the rat, also on gastric ulcers induced by aspirin in the rat, and on their influence on gastric secretions in the rat.
(3) Sodium hydroxide induced ulcers in the rat:
Also this test is performed in accordance with the method described by A. Robert et al, in Gastroenterology, 77,433 (1979), the disclosure of which is incorporated herein by reference.

[2] = system: gastric depletion in the rat; assay: Gastric depletion in the rat; assay type: in vivo; conditions: 50 mg/kg
Method: Gastric depletion in the rat.
Rats of both sexes and mean weight of 180-200 g are used. The animals are subjected to fasting for 24 hours but have free access to water up to 3 hours prior to the test.
Preparation of phenyl red solution: 50 mg of phenyl red is mixed with 100 ml of a 1.5% methyl cellulose solution and shaken for 5 hours.
1.5 ml per rat is administered irrespective of weight.
The rats are sacrificed by cervix translocation: the stomach is taken out after ligaturing the cardias and pilorus.
The entire stomach and contents are placed in the container of a homogenizer with 50 ml of 0.1N NaOH. They are homogenized for 2 minutes at a maximum velocity. They homogenate is transferred to a test-tube and left to settle for one hour.
5 ml of the supernatant is taken out and put into a centrifuge tube and mixed with 0.5 ml of 20% (w/v) trichloroacetic acid. The tube is centrifuged at 2500 rpm for 20 min. The entire supernatant is taken and mixed with 4 ml of 0.4N NaOH, and its absorbance is measured at 560λ.
Gastric depletion is calculated according to the following formula:
(1-sample absorbance/standard absorbance)×100
As "standard absorbance" is considered the mean value of spectophotometric measurement of 4 animals sacrificed immediately after administering phenyl red.

[3] = system: HCl induced ulcers in the rat; assay: Hydrochloric acid induced ulcers in the rat; assay type: in vivo
Method: as §1
(2) Hydrochloric acid induced ulcers in the rat:
The method used for this test is that described by A. Robert et al, in Gastroenterology, 77,433, (1979), the disclosure of which is incorporated herein by reference.

[4] = system: ethanol induced ulcers in the rat; assay: Ethanol induced ulcers in the rat; assay type: in vivo
Method: as §1
(1) Ethanol induced ulcers in the rat:
The method used is that described by A. Robert et al, in Gastroenterology 77,433 (1979), the disclosure of which is incorporated herein by reference.

[5] = system: gastric secretion in the rat; assay: Gastric secretion in the rat; assay type: in vivo, Sprague-Dawley rats
Method: as §1
(5) Gastric secretion in the rat:
Sprague-Dawley rats of both sexes are used for this test. The gastric secretion is rated according to the method described by H. Shay et al in Gastroenterology 5,43 (1945) the disclosure of which is incorporated herein by reference.

peptic ulcer = conditions: previous finding; cited from earlier work

With `CCCCCCC1CCC(NC(C)C)C1CCCCCCC(=O)O` (stereo not drawn) [drawing 23] the “Percent inhibition of NaOH induced ulcers in the rat” value ([1]; 12.5 mg/kg) was 13%, the “Percent inhibition of NaOH induced ulcers in the rat” value ([1]; 25 mg/kg) was 46% and the “Percent inhibition of NaOH induced ulcers in the rat” value ([1]; 50 mg/kg) was 54%.
With `CCCCCCC1CCC(NC)C1CCCCCCC(=O)O` (stereo not drawn) [drawing 39] the “inhibition values of gastric depletion” value [2] was 33%.
In the case of `CCCCCCC1CCC(N(C)C)C1CCCCCCC(=O)O` (stereo not drawn) [drawing 22], the “Percent inhibition of NaOH induced ulcers in the rat” value ([1]; 12.5 mg/kg) was 52%, the “Percent inhibition of NaOH induced ulcers in the rat” value ([1]; 25 mg/kg) was 63% and the “Percent inhibition of NaOH induced ulcers in the rat” value ([1]; 50 mg/kg) was 74%.
For `CCCCCCC1CCC(N(C)C)C1CCCCCCC(=O)O` (stereo not drawn) [drawing 16], the “Percent inhibition of HCl induced ulcers in the rat” value ([3]; 25 mg/kg) was 23%, the “Percent inhibition of HCl induced ulcers in the rat” value ([3]; 50 mg/kg) was 55% and the “Percent inhibition of HCl induced ulcers in the rat” value ([3]; 100 mg/kg) was 63%.
For `CCCCCCC1CCC(NC(C)=O)C1CCCCCCC(=O)O` (stereo not drawn) [drawing 18], the “Percent inhibition of HCl induced ulcers in the rat” value ([3]; 25 mg/kg) was 15% and the “Percent inhibition of HCl induced ulcers in the rat” value ([3]; 50 mg/kg) was 66%.
With `CCCCCCC1CCC(O)C1CCCCCCC(=O)O` (stereo not drawn) [drawing 13] the “Percent inhibition of ethanol induced ulcers in the rat” value ([4]; 50 mg/kg) was 9% and the “Percent inhibition of ethanol induced ulcers in the rat” value ([4]; 100 mg/kg) was 37%.
With `CCCCCCC1CCC(NC)C1CCCCCCC(=O)O` (stereo not drawn) [drawing 9] the “Percent inhibition of ethanol induced ulcers in the rat” value ([4]; 5 mg/kg) was 44%, the “Percent inhibition of ethanol induced ulcers in the rat” value ([4]; 10 mg/kg) was 67% and the “Percent inhibition of ethanol induced ulcers in the rat” value ([4]; 25 mg/kg) was 86%. For the same molecule, the “Percent inhibition of ethanol induced ulcers in the rat” value ([4]; 50 mg/kg) was 91% and the “Percent inhibition of ethanol induced ulcers in the rat” value ([4]; 100 mg/kg) was 91%.
With `CCCCCCC1CCC(NC)C1CCCCCCC(=O)O` (stereo not drawn) [drawing 33] the “Percent inhibition of gastric secretion in the rat” value ([5]; 25 mg/kg, 2 h after treatment) was 0%, the “Percent inhibition of gastric secretion in the rat” value ([5]; 25 mg/kg, 4 h after treatment) was 40% and the “Percent inhibition of gastric secretion in the rat” value ([5]; 50 mg/kg, 2 h after treatment) was 54%. For the same molecule, the “Percent inhibition of gastric secretion in the rat” value ([5]; 50 mg/kg, 4 h after treatment) was 49%, the “Percent inhibition of gastric secretion in the rat” value ([5]; 100 mg/kg, 2 h after treatment) was 79% and the “Percent inhibition of gastric secretion in the rat” value ([5]; 100 mg/kg, 4 h after treatment) was 66%.
With `CCCCCCC1CCC(N(C)C)C1CCCCCCC(=O)O` (stereo not drawn) [drawing 10] the “Percent inhibition of ethanol induced ulcers in the rat” value ([4]; 2.5 mg/kg) was 24%, the “Percent inhibition of ethanol induced ulcers in the rat” value ([4]; 5 mg/kg) was 43% and the “Percent inhibition of ethanol induced ulcers in the rat” value ([4]; 10 mg/kg) was 62%. For the same molecule, the “Percent inhibition of ethanol induced ulcers in the rat” value ([4]; 50 mg/kg) was 97% and the “Percent inhibition of ethanol induced ulcers in the rat” value ([4]; 100 mg/kg) was 91%.
For `CCCCCCC1CCC(O)C1CCCCCCC(=O)O` (stereo not drawn) [drawing 19], the “Percent inhibition of HCl induced ulcers in the rat” value ([3]; 25 mg/kg) was 15%, the “Percent inhibition of HCl induced ulcers in the rat” value ([3]; 100 mg/kg) was 45% and the “Percent inhibition of HCl induced ulcers in the rat” value ([3]; 200 mg/kg) was 63%.
With `CCCCCCC1CCC(N)C1CCCCCCC(=O)O` (stereo not drawn) [drawing 32] the “Percent inhibition of gastric secretion in the rat” value ([5]; 12.5 mg/kg, 2 h after treatment) was 38%, the “Percent inhibition of gastric secretion in the rat” value ([5]; 25 mg/kg, 2 h after treatment) was 87% and the “Percent inhibition of gastric secretion in the rat” value ([5]; 50 mg/kg, 2 h after treatment) was 88%. For the same molecule, the “Percent inhibition of gastric secretion in the rat” value ([5]; 50 mg/kg, 4 h after treatment) was 68%, the “Percent inhibition of gastric secretion in the rat” value ([5]; 100 mg/kg, 2 h after treatment) was 77% and the “Percent inhibition of gastric secretion in the rat” value ([5]; 100 mg/kg, 4 h after treatment) was 89%.
With `CCCCCCC1CCC(NC(C)=O)C1CCCCCCC(=O)O` (stereo not drawn) [drawing 42] the “inhibition values of gastric depletion” value [2] was 78%.
With `CCCCCCC1CCC(N(C)C)C1CCCCCCC(=O)O` (stereo not drawn) [drawing 34] the “Percent inhibition of gastric secretion in the rat” value ([5]; 25 mg/kg, 2 h after treatment) was 74%, the “Percent inhibition of gastric secretion in the rat” value ([5]; 25 mg/kg, 4 h after treatment) was 23% and the “Percent inhibition of gastric secretion in the rat” value ([5]; 50 mg/kg, 2 h after treatment) was 75%. For the same molecule, the “Percent inhibition of gastric secretion in the rat” value ([5]; 50 mg/kg, 4 h after treatment) was 55%, the “Percent inhibition of gastric secretion in the rat” value ([5]; 100 mg/kg, 2 h after treatment) was 82% and the “Percent inhibition of gastric secretion in the rat” value ([5]; 100 mg/kg, 4 h after treatment) was 63%.
In the case of `CCCCCCC1CCC(O)C1CCCCCCC(=O)O` (stereo not drawn) [Rosaprostol, 9-hydroxy-91,20-bis-nor-prostanoic acid sodium salt], the “antiulcer properties of the natural prostaglandins / other prostaglandin properties” value (peptic ulcer) is given as “maintaining the antiulcer properties of the natural prostaglandins, completely loses the others”.
For `CCCCCCC1CCC(NC(C)=O)C1CCCCCCC(=O)O` (stereo not drawn) [drawing 36], the “Percent inhibition of gastric secretion in the rat” value ([5]; 25 mg/kg, 2 h after treatment) was 51%, the “Percent inhibition of gastric secretion in the rat” value ([5]; 25 mg/kg, 4 h after treatment) was 0% and the “Percent inhibition of gastric secretion in the rat” value ([5]; 50 mg/kg, 2 h after treatment) was 48%. For the same molecule, the “Percent inhibition of gastric secretion in the rat” value ([5]; 50 mg/kg, 4 h after treatment) was 12%, the “Percent inhibition of gastric secretion in the rat” value ([5]; 100 mg/kg, 2 h after treatment) was 70% and the “Percent inhibition of gastric secretion in the rat” value ([5]; 100 mg/kg, 4 h after treatment) was 59%.
With `CCCCCCC1CCC(N(C)C)C1CCCCCCC(=O)O` (stereo not drawn) [drawing 40] the “inhibition values of gastric depletion” value [2] was 55%.
With `CCCCCCC1CCC(NC(C)C)C1CCCCCCC(=O)O` (stereo not drawn) [drawing 17] the “Percent inhibition of HCl induced ulcers in the rat” value ([3]; 25 mg/kg) was 0%, the “Percent inhibition of HCl induced ulcers in the rat” value ([3]; 50 mg/kg) was 46% and the “Percent inhibition of HCl induced ulcers in the rat” value ([3]; 100 mg/kg) was 54%.
For `CCCCCCC1CCC(NC)C1CCCCCCC(=O)O` (stereo not drawn) [drawing 15], the “Percent inhibition of HCl induced ulcers in the rat” value ([3]; 25 mg/kg) was 40%, the “Percent inhibition of HCl induced ulcers in the rat” value ([3]; 50 mg/kg) was 49% and the “Percent inhibition of HCl induced ulcers in the rat” value ([3]; 100 mg/kg) was 66%.
